This is an account of results in patent publication US20250340532A1, “HETEROCYCLIC COMPOUND CCR4 INHIBITOR AND USER THEREOF” (Xizang Haisco Pharmaceutical Co., Ltd., priority 2022, published 2025).

Bounds are passed on as bounds.

The target of this experiment is T1, CCR4 (Homo sapiens, UniProt P51679).
T1 construct: expressed in transfected cells; host or cells: HEK293
T1 sequence (P51679 1-360): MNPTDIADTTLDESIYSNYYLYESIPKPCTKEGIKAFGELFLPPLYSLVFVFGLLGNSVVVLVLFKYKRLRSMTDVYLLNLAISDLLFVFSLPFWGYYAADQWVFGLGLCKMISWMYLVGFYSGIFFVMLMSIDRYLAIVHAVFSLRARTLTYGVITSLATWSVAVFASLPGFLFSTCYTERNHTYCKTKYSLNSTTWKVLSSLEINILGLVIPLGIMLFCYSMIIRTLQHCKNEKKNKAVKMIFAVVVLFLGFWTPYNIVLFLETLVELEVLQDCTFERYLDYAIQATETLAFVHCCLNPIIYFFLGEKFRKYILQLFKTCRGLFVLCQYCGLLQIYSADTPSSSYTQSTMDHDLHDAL
In words: Calcium flow detected by FLIPR. Format: cell-based. Particulars: CCR4/HEK293 cells, agonist CCL17, Fluo-4 calcium signal. As to the method:
CCR4/HEK293 cells were added to a 384-well cell culture plate (Greiner #781946) at a rate of 20 μL/well (20,000 cells/well) and incubated overnight in a 37° C., 5% CO2 incubator (Incubator, Thermo). On the second day, the 384-well cell culture plate was taken out of the incubator and the culture medium was removed; Then, 20 μL of detection buffer and 20 μL of 2X Fluo-4 Direct™ (Invitrogen, Cat #F10471) were added. Then, compounds were added at 10 μL/well (compounds were subjected to 4-fold serial dilution, and the highest detection concentration was 10 μM), and the cells were incubated in a 37° C., 5% CO2 incubator for 50 min, and then incubated at room temperature for 10 min. The 384-well culture plate was placed in FLIPR ([…]), 10 μL of 6X agonist CCL17 was added by using an automatic loader, and the fluorescence signal was read immediately. The mean and standard error (Mean±SEM) were statistically analyzed using Graphpad Prism software, and the IC50 value was calculated.
The experimental results are shown in Table 3, where A represents IC50<100 nm; B represents 100 nM≤IC50<500 nM, and C represents 500 nM≤IC50.
As a reminder, the IC50 is the point on the concentration scale where inhibition reaches its midpoint. As to `Cc1nc(N2CCC(F)(C3CN(C4CC(C)(C(=O)O)C4)CCO3)CC2)nc(NC(C)c2ccc(Cl)cc2Cl)c1Cl` (single isomer, unassigned) [Compound 106 isomer 3], the half-maximal inhibitory concentration (IC50) was less than 100 nM.

As for `Cc1nc(N2CC=C(C3CN(C4CC(C)(C(=O)O)C4)CCO3)CC2)nc(NC(C)c2ccc(Cl)cc2Cl)c1Cl` (single isomer, unassigned) [Compound 107 isomer 1], the IC50 was less than 100 nM. For `C[C@@H](Nc1cc(N2CCC(C3CN(C4CC(C)(C(=O)O)C4)CCO3)CC2)nc2ccnn12)c1ccc(Cl)cc1Cl` (single isomer, unassigned) [Compound 111], the concentration for half-maximal inhibition (IC50) was less than 100 nM. As for `C#Cc1c(C)nc(N2CC([C@H]3CCCN([C@H]4C[C@](C)(C(=O)O)C4)C3)C2)nc1N[C@H](C)c1ccc(Cl)cc1Cl` [Compound 4], the figure is less than 100 nM. The figure for `Cc1cc(N2CC([C@H]3CCCN([C@H]4C[C@](C)(C(=O)O)C4)C3)C2)nc(N[C@H](C)c2ccc(Cl)cc2Cl)n1` [Compound 12] is less than 100 nM; for `Cc1nc(N2CC([C@H]3CCCN([C@H]4C[C@](C)(C(=O)O)C4)C3)C2)nc(NC(C)c2cc3c(cc2Cl)CC3)c1Cl` (some centres unmarked) [Compound 13] it is 100 to 500 nM. `C[C@@H](Nc1cc(N2CC([C@H]3CCCN([C@H]4C[C@](C)(C(=O)O)C4)C3)C2)nc2ccnn12)c1ccc(Cl)cc1Cl` [Compound 14]: the IC50 was less than 100 nM. The figure for `C[C@@H](Nc1cc(N2CC([C@H]3CCCN([C@H]4C[C@](C)(C(=O)O)C4)C3)C2)ncn1)c1ccc(Cl)cc1Cl` [Compound 15] is less than 100 nM; for `Cc1nc(N[C@H](C)c2ccc(Cl)cc2Cl)nc(N2CC([C@H]3CCCN([C@H]4C[C@](C)(C(=O)O)C4)C3)C2)n1` [Compound 17] it is less than 100 nM. With `C[C@H](c1ccc(Cl)cc1Cl)n1nc(C#N)c2ncc(N3CC(C4CN(CCO)CCO4)C3)nc21` (some centres unmarked) [Compound 19], the half-inhibitory concentration (IC50) is less than 100 nM. Take `C[C@@H](Nc1cc(N2CC([C@H]3CCCN([C@H]4C[C@](C)(C(=O)O)C4)C3)C2)cnn1)c1ccc(Cl)cc1Cl` [Compound 21]: the half-inhibitory concentration (IC50) is less than 100 nM. The figure for `C#Cc1ccc(C(C)Nc2cc(N3CC([C@H]4CCCN([C@H]5C[C@](C)(C(=O)O)C5)C4)C3)nc3ccnn23)c(Cl)c1` (some centres unmarked) [Compound 22] is less than 100 nM. As to `C#Cc1ccc(C(C)Nc2cc(N3CC([C@H]4CCCN([C@H]5C[C@](C)(C(=O)O)C5)C4)C3)ncn2)c(Cl)c1` (some centres unmarked) [Compound 23], the IC50 was less than 100 nM. The figure for `C[C@@H](Nc1cc(N2CC([C@H]3CCCN(CCO)C3)C2)nc2ccnn12)c1ccc(Cl)cc1Cl` [Compound 24] is less than 100 nM. As for `C[C@@H](Nc1cc(N2CC([C@H]3CCCN([C@H]4C[C@](C)(C(=O)O)C4)C3)C2)n2nccc2n1)c1ccc(Cl)cc1Cl` [Compound 25], the figure is less than 100 nM. Regarding `Cc1nc(N[C@H](C)c2ccc(Cl)cc2Cl)cc(N2CC([C@H]3CCCN([C@H]4C[C@](C)(C(=O)O)C4)C3)C2)n1` [Compound 26], the half-maximal inhibitory concentration (IC50) is less than 100 nM. As for `C[C@@H](Nc1cc(N2CC([C@H]3CCCN(CCO)C3)C2)ncn1)c1ccc(Cl)cc1Cl` [Compound 27], the figure is less than 100 nM; as for `Cc1nc(N2CC([C@@H]3CN(CCO)CCO3)C2)nc(N[C@H](C)c2ccc(Cl)cc2Cl)c1Cl` [Compound 31], less than 100 nM; as for `C[C@@H](Nc1nc(N2CC([C@H]3CCCN([C@H]4C[C@](C)(C(=O)O)C4)C3)C2)c2sccc2n1)c1ccc(Cl)cc1Cl` [Compound 33], less than 100 nM. As for `C[C@@H](Nc1nc2c(c(N3CC([C@H]4CCCN([C@H]5C[C@](C)(C(=O)O)C5)C4)C3)n1)CCC2)c1ccc(Cl)cc1Cl` [Compound 34], the figure is 100 to 500 nM. On to `Cc1nc(N2CC(C3CN(CC(C)(C)O)CCO3)C2)nc(N[C@H](C)c2ccc(Cl)cc2Cl)c1Cl` (some centres unmarked) [Compound 35], for which the IC50 was less than 100 nM. In the case of `Cc1nc(N2CC([C@H]3CCCN([C@H]4C[C@](C)(C(=O)O)C4)C3)C2)nc2c1CCCN2C(C)c1ccc(Cl)cc1Cl` (some centres unmarked) [Compound 36], the concentration for half-maximal inhibition (IC50) was in the range of 100 to 500 nM. Turning to `C#Cc1ccc(C(C)Nc2nc(N3CC([C@H]4CCCN(CCO)C4)C3)nc(C)c2Cl)c(Cl)c1` (some centres unmarked) [Compound 38], the IC50 was 100 to 500 nM. The figure for `Cc1cc(N2CC([C@H]3CCCN([C@H]4C[C@](C)(C(=O)O)C4)C3)C2)cc(N[C@H](C)c2ccc(Cl)cc2Cl)n1` [Compound 39] is less than 100 nM; for `C[C@@H](Nc1nc(N2CC([C@H]3CCCN([C@H]4C[C@](C)(C(=O)O)C4)C3)C2)c2ccccc2n1)c1ccc(Cl)cc1Cl` [Compound 40] it is less than 100 nM. For the molecule `C[C@@H](Nc1nc(N2CC([C@H]3CCCN([C@H]4C[C@](C)(C(=O)O)C4)C3)C2)c2ccn(C)c2n1)c1ccc(Cl)cc1Cl` [Compound 43], the IC50 was in the range of 100 to 500 nM. Regarding `C[C@@H](Nc1nc(N2CC([C@H]3CCCN([C@H]4C[C@](C)(C(=O)O)C4)C3)C2)c2c(ccn2C)n1)c1ccc(Cl)cc1Cl` [Compound 44], the IC50 lay in the range of 100 to 500 nM. Take `C[C@@H](Nc1nc2c(c(N3CC([C@H]4CCCN([C@H]5C[C@](C)(C(=O)O)C5)C4)C3)n1)COC2)c1ccc(Cl)cc1Cl` [Compound 45]: the IC50 fell in the range of 100 to 500 nM. As to `C[C@@H](Nc1nc(N2CC([C@H]3CCCN([C@H]4C[C@](C)(C(=O)O)C4)C3)C2)c2occc2n1)c1ccc(Cl)cc1Cl` [Compound 51], the IC50 was less than 100 nM. In the case of `C[C@@H](Nc1cc(N2CC([C@H]3CCCN([C@H]4C[C@](C)(C(=O)O)C4)C3)C2)nc(C(F)(F)F)n1)c1ccc(Cl)cc1Cl` [Compound 52], the half-inhibitory concentration (IC50) fell in the range of 100 to 500 nM.

Consider `C[C@@H](Nc1cc(N2CC([C@H]3CCCN([C@H]4C[C@](C)(C(=O)O)C4)C3)C2)nc2nccn12)c1ccc(Cl)cc1Cl` [Compound 55], for which the IC50 was less than 100 nM. Turning to `Cc1nc(N[C@H](C)c2ccc(Cl)cc2Cl)nc(N2CC([C@H]3CCCN([C@H]4C[C@](C)(C(=O)O)C4)C3)C2)c1Cl` [Compound 56], the IC50 is 100 to 500 nM.

As for `Cc1nc(N2CC(C3CN(C4CC(C)(C#N)C4)CCO3)C2)nc(N[C@H](C)c2ccc(Cl)cc2Cl)c1Cl` (some centres unmarked) [Compound 70], the IC50 was 100 to 500 nM. Take `Cc1nc(N2CC(F)(C3CN(CCC(=O)O)CCO3)C2)nc(N[C@H](C)c2ccc(Cl)cc2Cl)c1Cl` (some centres unmarked) [Compound 88]: the IC50 is less than 100 nM.

As for `C[C@@H](Nc1cc(N2CCC(C3CN(CCO)CCO3)CC2)nc2ccnn12)c1ccc(Cl)cc1Cl` (some centres unmarked) [Compound 112], the IC50 is less than 100 nM.
